# Data published in patent publication US20250302080A1, “SWEETNESS AND/OR FLAVOR ENHANCER” (AJINOMOTO CO., INC., priority 2022, published 2025).
# Columns and labels:
# [1] = Sensory evaluation of sweetness intensity in sucrose solution (Experimental Examples 25-27)
# Procedure: A negative control sucrose solution (0.7 wt % sucrose solution) was prepared by dissolving sucrose in filtered water.
# (§1) A sensory evaluation of sweetness intensity was performed for each sample by a panel of four experts according to the following evaluation criteria.
# Sweetness intensity was evaluated by 0.0 to 10.0 points based on the following reference samples (negative control (hereinafter referred to as NC) (0.0 point); reference 1 (hereinafter referred to as R1) (3.0 points), reference 2 (hereinafter referred to as R2) (5.0 points); reference 3 (hereinafter referred to as R3) (10.0 points)). The average score (rounded to two decimal places) of each expert panelist was calculated. An average score of 3.0 points or more was considered to be functional. • NC (0.0 point): 7.0 wt % sucrose solution (solvent: filtered water) • R1 (3.0 points): 7.3 wt % sucrose solution (solvent: filtered water) • R2 (5.0 points): 7.5 wt % sucrose solution (solvent: filtered water) • R3 (10.0 points): 8.0 wt % sucrose solution (solvent: filtered water)
# A sensory evaluation of sweetness intensity was performed for each sample by a panel of four experts according to the same evaluation criteria as in Experimental Example 25.
# [2] = Sensory evaluation of sweetness intensity in RebA solution, four reference samples (Experimental Examples 17-19)
# Procedure: A negative control RebA solution (0.073 wt % RebA solution) was prepared by dissolving RebA in filtered water.
# as §1
# Sweetness intensity was evaluated by 0.0 to 10.0 points based on the following reference samples (negative control (hereinafter referred to as NC) (0.0 point); reference 1 (hereinafter referred to as R1) (3.2 points), reference 2 (hereinafter referred to as R2) (5.0 points); reference 3 (hereinafter referred to as R3) (10.0 points)). The average score (rounded to two decimal places) of each expert panelist was calculated. An average score of 3.0 points or more was considered to be functional. • NC (0.0 point): 0.073 wt % RebA solution (solvent: filtered water) • R1 (3.2 points): 0.073 wt % RebA solution (solvent: filtered water)+decanoic acid (10 ppb) • R2 (5.0 points): 0.077 wt % RebA solution (solvent: filtered water) • R3 (10.0 points): 0.080 wt % RebA solution (solvent: filtered water)
# A sensory evaluation of sweetness intensity was performed for each sample by a panel of four experts according to the same evaluation criteria as in Experimental Example 17.
# [3] = added alone, 3.0 points or more
smiles,measurement,setting,value
O=C1C[C@@H](c2ccc(O)cc2)Oc2cc(O)cc(O)c21 [naringenin],concentration at which a sweetness-enhancing effect was confirmed,[1]; [3],≥ 15 ppm
same,sweetness intensity,[1]; naringenin alone at 1 ppm,1.1 points
same,sweetness intensity,[1]; naringenin alone at 5 ppm,1.7 points
same,sweetness intensity,[1]; naringenin alone at 10 ppm,2.6 points
same,sweetness intensity,[1]; naringenin alone at 15 ppm,3.6 points
same,sweetness intensity,[1]; naringenin alone at 30 ppm,4.6 points
same,sweetness intensity,[1]; naringenin alone at 50 ppm,5.8 points
same,concentration at which a sweetness-enhancing effect was confirmed,[2]; [3],≥ 10 ppm
same,sweetness intensity,[2]; naringenin alone at 1 ppm,1.8 points
same,sweetness intensity,[2]; naringenin alone at 5 ppm,2.5 points
same,sweetness intensity,[2]; naringenin alone at 10 ppm,3.3 points
same,sweetness intensity,[2]; naringenin alone at 15 ppm,4.1 points
same,sweetness intensity,[2]; naringenin alone at 30 ppm,5.0 points
same,sweetness intensity,[2]; naringenin alone at 50 ppm,5.4 points
